Measured values taken from publication PMC10924921, “Mi-2β promotes immune evasion in melanoma by activating EZH2 methylation” (Nature Communications, 2024).

Key:
Experiment in all cases: biochemical
Parameters in all cases: KINOMEscan active-site competition binding panel (468 kinase assays), per cent of control at 1000 nM
Conditions in all cases: KINOMEscan per cent of control (binding competition); read-out: Percent Control
PRKG2 = PRKG2 (Homo sapiens, UniProt Q13237)
From the text: (§1) Figure S7 / Percent Control

NLK = NLK (Homo sapiens, UniProt Q9UBE8)
From the text: as §1

WEE1 = WEE1 (Homo sapiens, UniProt P30291)
From the text: as §1

p38-alpha = molecular target: T1, p38-alpha (Homo sapiens, UniProt Q16539)
T1 construct: gene MAPK14
From the text: as §1

ACVRL1 = ACVRL1 (Homo sapiens, UniProt P37023)
Sequence of ACVRL1 (P37023 whole entry): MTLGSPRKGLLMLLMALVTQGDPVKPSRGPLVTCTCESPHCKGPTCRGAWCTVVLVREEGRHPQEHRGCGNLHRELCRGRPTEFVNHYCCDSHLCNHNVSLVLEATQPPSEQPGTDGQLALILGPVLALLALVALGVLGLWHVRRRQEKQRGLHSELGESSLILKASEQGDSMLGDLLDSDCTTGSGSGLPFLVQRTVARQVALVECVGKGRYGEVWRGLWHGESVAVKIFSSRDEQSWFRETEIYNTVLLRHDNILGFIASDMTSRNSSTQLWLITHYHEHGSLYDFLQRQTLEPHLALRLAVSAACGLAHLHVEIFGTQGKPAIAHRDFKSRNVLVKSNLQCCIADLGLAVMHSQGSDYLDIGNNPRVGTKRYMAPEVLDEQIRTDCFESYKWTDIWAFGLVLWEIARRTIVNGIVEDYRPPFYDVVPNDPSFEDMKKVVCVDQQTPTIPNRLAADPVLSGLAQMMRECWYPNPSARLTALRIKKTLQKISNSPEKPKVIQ
From the text: as §1

GSK3A = GSK3A (Homo sapiens, UniProt P49840)
From the text: as §1

MAPKAPK2 = MAPKAPK2 (Homo sapiens, UniProt P49137)
From the text: as §1

CLK4 = CLK4 (Homo sapiens, UniProt Q9HAZ1)
From the text: as §1

ABL1-phosphorylated = molecular target: T2, ABL1-phosphorylated (Homo sapiens, UniProt P00519)
T2 construct: phosphorylated
From the text: as §1

AKT3 = AKT3 (Homo sapiens, UniProt Q9Y243)
From the text: as §1

[1] = molecular target: T3, RSK4(Kin.Dom.2-C-terminal) (Homo sapiens, UniProt Q9UK32)
T3 construct: gene RPS6KA6; Kin.Dom.2-C-terminal
From the text: as §1

DDR1 = DDR1 (Homo sapiens, UniProt Q08345)
From the text: as §1

MAST1 = MAST1 (Homo sapiens, UniProt Q9Y2H9)
From the text: as §1

ULK3 = ULK3 (Homo sapiens, UniProt Q6PHR2)
Sequence of ULK3 (Q6PHR2 whole entry): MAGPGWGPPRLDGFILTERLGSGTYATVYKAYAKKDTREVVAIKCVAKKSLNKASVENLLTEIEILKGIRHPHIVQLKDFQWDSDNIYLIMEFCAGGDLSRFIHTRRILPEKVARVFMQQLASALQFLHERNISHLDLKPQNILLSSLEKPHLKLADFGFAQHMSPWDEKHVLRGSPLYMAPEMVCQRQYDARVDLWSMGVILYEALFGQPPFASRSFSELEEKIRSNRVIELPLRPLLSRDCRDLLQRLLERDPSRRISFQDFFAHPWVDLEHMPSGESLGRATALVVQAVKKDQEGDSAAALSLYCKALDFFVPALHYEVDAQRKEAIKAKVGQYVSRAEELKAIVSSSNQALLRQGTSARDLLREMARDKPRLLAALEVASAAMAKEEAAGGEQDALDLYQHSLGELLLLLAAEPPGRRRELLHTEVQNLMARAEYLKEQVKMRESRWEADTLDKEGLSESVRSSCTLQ
From the text: as §1

TSSK1B = TSSK1B (Homo sapiens, UniProt Q9BXA7)
From the text: as §1

TRPM6 = TRPM6 (Homo sapiens, UniProt Q9BX84)
Sequence of TRPM6 (Q9BX84 whole entry): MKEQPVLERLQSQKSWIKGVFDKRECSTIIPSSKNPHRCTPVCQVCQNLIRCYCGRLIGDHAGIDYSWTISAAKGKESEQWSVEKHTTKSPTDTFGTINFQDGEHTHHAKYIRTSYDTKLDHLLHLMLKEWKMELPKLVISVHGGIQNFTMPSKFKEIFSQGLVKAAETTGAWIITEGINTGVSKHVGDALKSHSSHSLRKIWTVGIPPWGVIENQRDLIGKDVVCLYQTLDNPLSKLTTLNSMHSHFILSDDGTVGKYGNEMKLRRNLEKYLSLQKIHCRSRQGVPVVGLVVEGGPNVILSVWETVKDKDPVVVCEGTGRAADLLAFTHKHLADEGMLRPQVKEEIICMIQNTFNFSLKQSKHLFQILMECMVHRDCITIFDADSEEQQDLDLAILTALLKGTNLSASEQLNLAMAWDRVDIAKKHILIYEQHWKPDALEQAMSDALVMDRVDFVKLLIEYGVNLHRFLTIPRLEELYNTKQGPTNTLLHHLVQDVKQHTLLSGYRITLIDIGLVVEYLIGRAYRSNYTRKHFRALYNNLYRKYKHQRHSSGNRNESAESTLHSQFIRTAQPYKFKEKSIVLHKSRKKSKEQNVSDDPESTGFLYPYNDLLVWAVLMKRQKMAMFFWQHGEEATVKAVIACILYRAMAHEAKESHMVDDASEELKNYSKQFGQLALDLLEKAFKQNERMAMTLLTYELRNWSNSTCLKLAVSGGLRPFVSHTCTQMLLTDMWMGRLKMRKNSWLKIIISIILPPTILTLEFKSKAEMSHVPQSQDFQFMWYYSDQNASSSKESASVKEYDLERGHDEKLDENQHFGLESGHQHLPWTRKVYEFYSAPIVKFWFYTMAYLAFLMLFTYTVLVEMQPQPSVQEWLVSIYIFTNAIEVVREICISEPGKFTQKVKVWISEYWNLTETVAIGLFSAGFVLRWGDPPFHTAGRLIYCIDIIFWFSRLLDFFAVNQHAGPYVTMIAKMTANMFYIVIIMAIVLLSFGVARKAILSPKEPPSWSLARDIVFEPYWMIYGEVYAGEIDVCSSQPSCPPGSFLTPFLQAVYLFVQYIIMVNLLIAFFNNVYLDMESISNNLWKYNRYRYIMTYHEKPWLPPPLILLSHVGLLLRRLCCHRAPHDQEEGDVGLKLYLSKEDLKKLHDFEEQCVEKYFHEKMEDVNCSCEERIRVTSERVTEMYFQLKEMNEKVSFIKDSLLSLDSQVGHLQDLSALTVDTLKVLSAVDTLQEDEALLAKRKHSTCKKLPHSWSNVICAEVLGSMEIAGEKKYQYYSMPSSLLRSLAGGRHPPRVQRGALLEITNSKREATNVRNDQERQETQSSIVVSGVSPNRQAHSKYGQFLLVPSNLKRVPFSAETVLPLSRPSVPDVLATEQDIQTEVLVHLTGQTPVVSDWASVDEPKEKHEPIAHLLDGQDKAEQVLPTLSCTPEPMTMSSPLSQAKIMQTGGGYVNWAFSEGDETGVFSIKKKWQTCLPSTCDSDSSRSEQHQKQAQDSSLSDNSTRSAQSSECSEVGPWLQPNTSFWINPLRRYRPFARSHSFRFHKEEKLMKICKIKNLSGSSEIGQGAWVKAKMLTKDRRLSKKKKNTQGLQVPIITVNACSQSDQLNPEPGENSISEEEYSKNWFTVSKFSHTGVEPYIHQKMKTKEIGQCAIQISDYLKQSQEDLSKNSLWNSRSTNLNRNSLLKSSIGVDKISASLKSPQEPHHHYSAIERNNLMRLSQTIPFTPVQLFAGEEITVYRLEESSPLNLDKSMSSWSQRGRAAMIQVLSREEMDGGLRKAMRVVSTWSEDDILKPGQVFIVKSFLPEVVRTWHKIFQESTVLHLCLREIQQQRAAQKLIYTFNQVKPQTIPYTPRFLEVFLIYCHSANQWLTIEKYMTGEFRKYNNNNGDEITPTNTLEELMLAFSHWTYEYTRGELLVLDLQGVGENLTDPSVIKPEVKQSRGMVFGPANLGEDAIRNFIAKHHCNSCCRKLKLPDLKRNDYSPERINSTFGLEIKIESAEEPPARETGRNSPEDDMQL
From the text: as §1

[2] = molecular target: EGFR(L747-S752del, P753S) (Homo sapiens, UniProt P00533, DEL747-752/P753S)
From the text: as §1

CIT = CIT (Homo sapiens, UniProt O14578)
From the text: as §1

[3] = molecular target: T4, RSK1(Kin.Dom.1-N-terminal) (Homo sapiens, UniProt Q15418)
T4 construct: gene RPS6KA1; Kin.Dom.1-N-terminal
From the text: as §1

YANK2 = molecular target: T5, YANK2 (Homo sapiens, UniProt Q9NY57)
T5 construct: gene STK32B
From the text: as §1

YES = molecular target: T6, YES (Homo sapiens, UniProt P07947)
T6 construct: gene YES1
T6 sequence (P07947 whole entry): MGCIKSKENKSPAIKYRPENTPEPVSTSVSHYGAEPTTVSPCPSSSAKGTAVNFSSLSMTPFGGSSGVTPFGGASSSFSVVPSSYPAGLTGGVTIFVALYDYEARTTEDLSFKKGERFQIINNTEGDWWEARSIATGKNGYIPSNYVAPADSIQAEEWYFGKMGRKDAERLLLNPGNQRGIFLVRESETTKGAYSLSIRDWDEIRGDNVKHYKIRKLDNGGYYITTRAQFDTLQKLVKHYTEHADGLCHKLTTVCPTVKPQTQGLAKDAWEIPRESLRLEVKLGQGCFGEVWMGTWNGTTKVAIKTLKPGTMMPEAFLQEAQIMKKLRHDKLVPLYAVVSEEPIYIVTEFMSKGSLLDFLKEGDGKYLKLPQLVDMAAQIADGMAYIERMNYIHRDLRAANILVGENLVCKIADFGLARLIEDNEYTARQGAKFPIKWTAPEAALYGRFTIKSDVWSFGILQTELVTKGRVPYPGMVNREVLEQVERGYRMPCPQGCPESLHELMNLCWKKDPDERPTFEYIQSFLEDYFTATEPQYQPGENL
From the text: as §1

RIOK2 = RIOK2 (Homo sapiens, UniProt Q9BVS4)
From the text: as §1

[4] = molecular target: T7, ABL1(F317I)-phosphorylated (Homo sapiens, UniProt P00519, F317I)
T7 construct: phosphorylated
From the text: as §1

IRAK4 = IRAK4 (Homo sapiens, UniProt Q9NWZ3)
Sequence of IRAK4 (Q9NWZ3 whole entry): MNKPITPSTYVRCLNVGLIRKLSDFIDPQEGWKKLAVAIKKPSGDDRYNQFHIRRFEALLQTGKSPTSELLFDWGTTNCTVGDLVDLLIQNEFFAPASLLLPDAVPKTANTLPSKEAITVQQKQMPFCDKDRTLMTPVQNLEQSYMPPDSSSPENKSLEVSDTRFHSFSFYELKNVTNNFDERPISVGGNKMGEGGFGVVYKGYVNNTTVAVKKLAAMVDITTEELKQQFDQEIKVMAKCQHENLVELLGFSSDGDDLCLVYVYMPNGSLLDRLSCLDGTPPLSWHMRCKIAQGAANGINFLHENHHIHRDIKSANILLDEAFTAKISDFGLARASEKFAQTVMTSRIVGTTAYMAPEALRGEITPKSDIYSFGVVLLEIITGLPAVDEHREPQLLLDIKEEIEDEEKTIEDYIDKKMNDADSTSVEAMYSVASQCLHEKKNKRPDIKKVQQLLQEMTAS
From the text: as §1

Sequence of PRKG2 (Q13237 whole entry): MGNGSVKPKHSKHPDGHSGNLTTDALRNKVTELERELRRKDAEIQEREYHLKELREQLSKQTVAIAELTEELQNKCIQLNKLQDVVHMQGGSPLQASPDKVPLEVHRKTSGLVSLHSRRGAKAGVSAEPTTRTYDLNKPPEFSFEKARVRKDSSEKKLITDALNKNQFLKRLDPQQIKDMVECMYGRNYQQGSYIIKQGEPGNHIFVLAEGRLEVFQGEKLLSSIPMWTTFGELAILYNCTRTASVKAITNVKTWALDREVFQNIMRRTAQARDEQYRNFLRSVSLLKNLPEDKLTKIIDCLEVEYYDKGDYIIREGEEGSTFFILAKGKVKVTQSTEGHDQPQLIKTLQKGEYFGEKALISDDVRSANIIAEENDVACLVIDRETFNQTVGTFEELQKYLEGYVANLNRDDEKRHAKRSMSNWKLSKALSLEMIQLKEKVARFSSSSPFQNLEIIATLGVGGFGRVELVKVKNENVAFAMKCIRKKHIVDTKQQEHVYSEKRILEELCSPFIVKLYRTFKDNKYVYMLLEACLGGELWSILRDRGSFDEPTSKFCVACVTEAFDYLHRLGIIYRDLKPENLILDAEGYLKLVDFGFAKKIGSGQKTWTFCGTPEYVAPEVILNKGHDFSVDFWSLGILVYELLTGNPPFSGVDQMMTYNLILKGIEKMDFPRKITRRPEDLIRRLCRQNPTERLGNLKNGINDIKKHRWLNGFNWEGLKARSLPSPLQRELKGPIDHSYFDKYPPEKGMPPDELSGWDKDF

Cn1c(=O)[nH]c2ccc(-c3cccc(C(=O)NC4CCn5ccnc5C4)c3)cc21 (stereo not drawn) [Z36-MP5]
remaining binding at 1 µM (PRKG2): 88%
remaining binding at 1 µM (NLK): 59%
remaining binding at 1 µM (WEE1): 100%
remaining binding at 1 µM (p38-alpha): 63%
remaining binding at 1 µM (ACVRL1): 92%
remaining binding at 1 µM (GSK3A): 95%
remaining binding at 1 µM (MAPKAPK2): 55%
remaining binding at 1 µM (CLK4): 69%
remaining binding at 1 µM (ABL1-phosphorylated): 51%
remaining binding at 1 µM (AKT3): 91%
remaining binding at 1 µM [1]: 82%
remaining binding at 1 µM (DDR1): 88%
remaining binding at 1 µM (MAST1): 72%
remaining binding at 1 µM (ULK3): 71%
remaining binding at 1 µM (TSSK1B): 92%
remaining binding at 1 µM (TRPM6): 90%
remaining binding at 1 µM [2]: 51%
remaining binding at 1 µM (CIT): 76%
remaining binding at 1 µM [3]: 93%
remaining binding at 1 µM (YANK2): 56%
remaining binding at 1 µM (YES): 99%
remaining binding at 1 µM (RIOK2): 84%
remaining binding at 1 µM [4]: 90%
remaining binding at 1 µM (IRAK4): 78%
